In ChEMBL document CHEMBL3045383, “Synthesis, characterization, anticancer activity, and QSAR-studies of some new tetrahydropyrimidines” (2011):

Key:
Type in all cases: functional
PC-3 = experiment: Cytotoxicity against Homo sapiens (human) PC3 cells after 48 hr by SRB assay; conditions: PC-3, 48 h
COLO 205 = experiment: Cytotoxicity against Homo sapiens (human) COLO205 cells after 48 hr by SRB assay; conditions: COLO 205, 48 h
CAKI-1 = experiment: Cytotoxicity against Homo sapiens (human) CAKI-1 cells after 48 hr by SRB assay; conditions: CAKI-1, 48 h
HOP-92 = experiment: Cytotoxicity against Homo sapiens (human) HOP92 cells after 48 hr by SRB assay; conditions: HOP-92, 48 h
HL-60(TB) = experiment: Cytotoxicity against Homo sapiens (human) HL-60(TB) cells after 48 hr by SRB assay; conditions: HL-60, 48 h
NCI/ADR-RES = experiment: Cytotoxicity against Homo sapiens (human) NCI/ADR-RES cells after 48 hr by SRB assay
SK-MEL-5 = experiment: Cytotoxicity against Homo sapiens (human) SK-MEL-5 cells after 48 hr by SRB assay; conditions: SK-MEL-5, 48 h
SF-268 = experiment: Cytotoxicity against Homo sapiens (human) SF268 cells after 48 hr by SRB assay; conditions: SF-268, 48 h
IGROV-1 = experiment: Cytotoxicity against Homo sapiens (human) IGROV1 cells after 48 hr by SRB assay; conditions: IGROV-1, 48 h

| SMILES | GI50 (PC-3) [µM] | GI50 (COLO 205) [µM] | GI50 (CAKI-1) [µM] | GI50 (HOP-92) [µM] | GI50 (HL-60(TB)) [µM] | GI50 (NCI/ADR-RES) [µM] | GI50 (SK-MEL-5) [µM] | GI50 (SF-268) [µM] | GI50 (IGROV-1) [µM] |
| --- | --- | --- | --- | --- | --- | --- | --- | --- | --- |
| CC1=C(C(=O)Nc2ccc(Cl)c(Cl)c2)C(c2ccccc2Cl)NC(=S)N1 (stereo not drawn) | 20 | 7.94 | 17.8 | 1.2 | 15.5 | 15.8 | 10 | 8.91 | 15.8 |
| CC1=C(C(=O)Nc2ccc(Cl)c(Cl)c2)C(c2cccc(Cl)c2)NC(=O)N1 (stereo not drawn) | 50.1 | 7.94 | 12.6 | 45.7 | 13.5 | 16.6 | 9.55 | 11.2 | 10.5 |
| CC1=C(C(=O)Nc2ccc(F)c(Cl)c2)C(c2ccccc2Cl)NC(=S)N1 (stereo not drawn) | 20.4 | 24 | 31.6 | 50.1 | 25.7 | 16.6 | 12.3 | 14.8 | 17.8 |
| CC1=C(C(=O)Nc2ccc(F)c(Cl)c2)C(c2cccc(Cl)c2)NC(=S)N1 (stereo not drawn) | 25.1 | 4.17 | 39.8 | 32.4 | 16.2 | 15.8 | 8.32 | 10 | 14.1 |
| CC1=C(C(=O)Nc2ccc(F)c(Cl)c2)C(c2cccc(Oc3ccccc3)c2)NC(=S)N1 (stereo not drawn) | 12 | 17.8 | 12.6 | 20.9 | 17.4 | 15.5 | 8.91 | 8.91 | 10.7 |
| COc1cccc(C2NC(=S)NC(C)=C2C(=O)Nc2ccc(F)c(Cl)c2)c1 (stereo not drawn) | 23.4 | 26.9 | 49 | 50.1 | 17.4 | 15.5 | 13.2 | 18.2 | 27.5 |
| CC1=C(C(=O)Nc2ccc(F)c(Cl)c2)C(c2cccc(O)c2)NC(=S)N1 (stereo not drawn) | 25.1 | 22.4 | 50.1 | 50.1 | 25.7 | 17 | 11.2 | 17.8 | 22.9 |
| CC1=C(C(=O)Nc2ccc(F)c(Cl)c2)C(c2cccc(Oc3ccccc3)c2)NC(=O)N1 (stereo not drawn) | 22.4 | 6.31 | 10 | 40.7 | 13.8 | 16.2 | 7.59 | 8.51 | 7.94 |
| CC1=C(C(=O)Nc2ccc(Cl)c(Cl)c2)C(c2cccc(Oc3ccccc3)c2)NC(=S)N1 (stereo not drawn) | 9.77 | 9.33 | 8.51 | 13.2 | 83.2 | 15.5 | 7.94 | 6.17 | 7.76 |
| COc1cccc(C2NC(=S)NC(C)=C2C(=O)Nc2ccc(Cl)c(Cl)c2)c1 (stereo not drawn) | 14.5 | 9.33 | 17.8 | 12.6 | 49 | 16.6 | 9.55 | 12.6 | 15.8 |
| CC1=C(C(=O)Nc2ccc(Cl)c(Cl)c2)C(c2cccc(O)c2)NC(=S)N1 (stereo not drawn) | 14.1 | 7.08 | 22.4 | 13.5 | 11.2 | 15.8 | 10 | 15.8 | 19.1 |
| CC1=C(C(=O)Nc2ccc(Cl)c(Cl)c2)C(c2ccccc2O)NC(=O)N1 (stereo not drawn) | 33.9 | 28.2 | 39.8 | 50.1 | 50.1 | 17.8 | 12.6 | 28.2 | 25.1 |
